Results on 1 molecule are retold here after publication PMC9147192, “Small Molecule Arranged Thermal Proximity Coaggregation (smarTPCA)—A Novel Approach to Characterize Protein–Protein Interactions in Living Cells by Similar Isothermal Dose–Responses” (International Journal of Molecular Sciences, 2022).

Usually Hill slope stands for the slope factor of the fitted curve.

Assay in all cases: TPP-CCR in living HL-60 cells
Common to all, as to assay type: cell-based

One experiment concerns the target T1, SMIM12 (Homo sapiens, UniProt Q96EX1).
T1 construct: endogenous in cells; host or cells: HL-60 (ATCC CCL-240)
T1 sequence (Q96EX1 1-92): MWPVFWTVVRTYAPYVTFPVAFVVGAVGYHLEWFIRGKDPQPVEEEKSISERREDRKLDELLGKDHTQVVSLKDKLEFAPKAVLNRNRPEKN

A further experiment addresses T2, UNC119B (Homo sapiens, UniProt A6NIH7).
T2 construct: endogenous in cells; host or cells: HL-60 (ATCC CCL-240)

Another experiment addresses T3, CHMP4B (Homo sapiens, UniProt Q9H444).
T3 construct: endogenous in cells; host or cells: HL-60 (ATCC CCL-240)
T3 sequence (Q9H444 1-224): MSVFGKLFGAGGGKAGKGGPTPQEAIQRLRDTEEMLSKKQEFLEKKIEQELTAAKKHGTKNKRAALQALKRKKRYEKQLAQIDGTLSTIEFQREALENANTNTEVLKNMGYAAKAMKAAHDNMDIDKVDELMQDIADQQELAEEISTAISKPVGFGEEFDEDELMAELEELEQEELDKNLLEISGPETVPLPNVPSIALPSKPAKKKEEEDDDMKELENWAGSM

The target in another experiment is T4, MIA3 (Homo sapiens, UniProt Q5JRA6).
T4 construct: endogenous in cells; host or cells: HL-60 (ATCC CCL-240)

For the next experiment, the target named is T5, VAPA (Homo sapiens, UniProt Q9P0L0).
T5 construct: dose–responses (mean over replicates), derived from TPP-CCR experiments in living cells; endogenous in cells; host or cells: HL-60 cells (ATCC No. CCL-240)
T5 sequence (Q9P0L0 1-249): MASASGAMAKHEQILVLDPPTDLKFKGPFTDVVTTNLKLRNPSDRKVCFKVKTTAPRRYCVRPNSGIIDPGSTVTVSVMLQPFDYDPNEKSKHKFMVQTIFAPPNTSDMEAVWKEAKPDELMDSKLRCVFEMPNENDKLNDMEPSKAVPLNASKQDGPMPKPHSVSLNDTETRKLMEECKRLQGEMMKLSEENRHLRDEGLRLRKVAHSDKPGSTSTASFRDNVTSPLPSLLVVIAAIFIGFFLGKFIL

[1] abbreviates: living HL-60 cells, […] °C, TMT-MS.

T2 sequence (A6NIH7 whole entry): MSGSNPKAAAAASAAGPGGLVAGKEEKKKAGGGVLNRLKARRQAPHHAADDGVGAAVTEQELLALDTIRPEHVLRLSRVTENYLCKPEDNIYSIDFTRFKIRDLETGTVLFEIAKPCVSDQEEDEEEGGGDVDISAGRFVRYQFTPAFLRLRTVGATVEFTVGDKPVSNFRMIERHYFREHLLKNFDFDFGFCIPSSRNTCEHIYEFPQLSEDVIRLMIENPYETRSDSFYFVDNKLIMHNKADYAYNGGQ
T4 sequence (Q5JRA6 23-1907): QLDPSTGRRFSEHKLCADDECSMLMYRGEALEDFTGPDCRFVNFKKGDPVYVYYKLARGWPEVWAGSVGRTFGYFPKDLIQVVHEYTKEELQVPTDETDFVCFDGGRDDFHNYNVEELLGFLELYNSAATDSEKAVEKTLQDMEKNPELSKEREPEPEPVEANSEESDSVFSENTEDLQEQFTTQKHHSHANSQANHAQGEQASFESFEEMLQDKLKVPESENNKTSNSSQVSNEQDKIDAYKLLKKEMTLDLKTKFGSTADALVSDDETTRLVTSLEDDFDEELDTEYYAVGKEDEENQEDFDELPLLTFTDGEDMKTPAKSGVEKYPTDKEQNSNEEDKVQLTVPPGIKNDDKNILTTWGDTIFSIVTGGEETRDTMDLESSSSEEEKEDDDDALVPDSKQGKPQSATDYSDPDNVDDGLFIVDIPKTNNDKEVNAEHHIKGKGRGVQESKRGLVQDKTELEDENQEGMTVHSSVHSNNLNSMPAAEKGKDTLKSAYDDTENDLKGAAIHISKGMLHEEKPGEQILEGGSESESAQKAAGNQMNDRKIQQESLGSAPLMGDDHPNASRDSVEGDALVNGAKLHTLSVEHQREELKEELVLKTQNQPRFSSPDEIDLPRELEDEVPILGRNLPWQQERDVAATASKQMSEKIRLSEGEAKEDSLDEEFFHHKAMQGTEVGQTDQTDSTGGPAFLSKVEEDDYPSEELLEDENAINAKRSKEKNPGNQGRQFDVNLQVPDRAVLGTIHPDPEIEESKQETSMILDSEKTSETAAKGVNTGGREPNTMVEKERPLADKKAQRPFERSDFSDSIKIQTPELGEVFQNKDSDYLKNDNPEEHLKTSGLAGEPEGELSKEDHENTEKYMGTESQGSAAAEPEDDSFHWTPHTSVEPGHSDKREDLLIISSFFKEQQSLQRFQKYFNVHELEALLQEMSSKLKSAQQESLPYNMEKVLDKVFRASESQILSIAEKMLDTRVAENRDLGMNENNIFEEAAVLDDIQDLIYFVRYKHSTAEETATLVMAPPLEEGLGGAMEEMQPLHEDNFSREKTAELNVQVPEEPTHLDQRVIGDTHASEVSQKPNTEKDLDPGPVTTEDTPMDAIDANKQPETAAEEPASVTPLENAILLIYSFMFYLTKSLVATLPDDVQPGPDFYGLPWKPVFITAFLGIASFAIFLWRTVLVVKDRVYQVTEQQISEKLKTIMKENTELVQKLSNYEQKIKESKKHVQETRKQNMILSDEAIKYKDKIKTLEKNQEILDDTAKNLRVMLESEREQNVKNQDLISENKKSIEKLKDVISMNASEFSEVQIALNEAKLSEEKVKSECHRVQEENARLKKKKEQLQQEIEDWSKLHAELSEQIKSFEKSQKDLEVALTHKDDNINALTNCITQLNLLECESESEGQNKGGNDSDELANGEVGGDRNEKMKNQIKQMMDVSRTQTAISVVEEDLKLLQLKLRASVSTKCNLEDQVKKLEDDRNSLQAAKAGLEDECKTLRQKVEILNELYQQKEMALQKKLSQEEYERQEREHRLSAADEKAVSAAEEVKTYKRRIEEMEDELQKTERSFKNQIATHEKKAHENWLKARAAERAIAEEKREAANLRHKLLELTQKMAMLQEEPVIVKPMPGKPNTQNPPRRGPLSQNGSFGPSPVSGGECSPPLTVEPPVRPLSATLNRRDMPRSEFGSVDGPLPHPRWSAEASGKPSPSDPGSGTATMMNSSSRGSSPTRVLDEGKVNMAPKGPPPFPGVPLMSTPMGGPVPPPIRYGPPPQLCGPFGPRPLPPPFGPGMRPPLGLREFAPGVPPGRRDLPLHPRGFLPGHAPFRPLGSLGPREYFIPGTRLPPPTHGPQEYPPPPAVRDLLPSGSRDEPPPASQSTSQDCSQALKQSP

Consider `Cc1cnc(Nc2ccc(F)cc2Cl)nc1-c1c[nH]c(C(=O)N[C@H](CO)c2cccc(Cl)c2)c1` [ERK 11e], for which the Hill slope is listed as 0.47 at SMIM12 (TPP-CCR, living cells, SMIM12); 0.67 at UNC119B (TPP-CCR, living cells, UNC119B); 0.21 on CHMP4B (TPP-CCR, living cells, CHMP4B); 0.98 on MIA3 (TPP-CCR, living cells, MIA3); 0.66 on VAPA (TPP-CCR, living cells, VAPA). In addition, the “Hill slope (SMIM12)” value on SMIM12 (setting [1]) was 0.47. Also, the EC50 at SMIM12 (living HL-60 cells, […] °C, TMT-MS, read-out: pEC50 (SMIM12) (converted)) is 0.427 µM; at UNC119B (living HL-60 cells, […] °C, TMT-MS, read-out: pEC50 (UNC119B) (converted)), 1.05 µM; at CHMP4B (living HL-60 cells, […] °C, TMT-MS, read-out: pEC50 (CHMP4B) (converted)), 0.0417 µM; at MIA3 (living HL-60 cells, […] °C, TMT-MS, read-out: pEC50 (MIA3) (converted)), 3.39 µM; on VAPA (setting [1]) it was 1.55 µM. The “Hill slope (UNC119B)” value at UNC119B (setting [1]) came out at 0.67. Besides, the “Hill slope (CHMP4B)” value on CHMP4B (setting [1]) turned out to be 0.21. The “Hill slope (MIA3)” value on MIA3 (setting [1]) worked out at 0.98. In addition, the “Hill slope (VAPA)” value on VAPA (setting [1]) stood at 0.66.
